# Data: patent US9963434B2, “N-arylmethyl sulfonamide negative modulators of NR2A” (LUC THERAPEUTICS, priority 2013, dated 2018)
# Where two headings read alike, the source gives them in different places.
# Target: NR1/NR2A (Homo sapiens (Human), UniProt Q05586+Q12879)
# Assay: FDSS Ca2+ influx inhibition assay in HEK293 cells expressing NR1/NR2A
# Type: cell-based
# Details: 3 μM glutamate, 3 μM glycine, 1 mM Ca2+
# Procedure: Cell Culture and plating: HEK293 cells expressing NR1/NR2A (Chantest, Cleveland, Ohio) were grown to 70-80% confluency as an adherent monolayer in standard tissue culture flasks at 37° C., 5% CO2 per supplier's instructions.
# After induction, cell culture medium was removed and cells were rinsed once with Ca^2+ and Mg^2+-free Dulbecco's phosphate buffered saline. Cells were then removed from the flask using TrypLE™ Express (Life Technologies) according to the manufacturer's instructions and collected to 50 ml centrifuge tubes. Following two washes in Ca^2+/Mg^2+-free HBSS with 20 mM HEPES (HHnoCa), cells were counted and viability assessed using trypan blue. To load cells with Ca^2+-sensitive dye, they were resuspended in fluo-8 plus Component B (AAT Bioquest Products) diluted in HHnoCa and incubated 15 minutes at 37° C., followed by 30 minutes at room temp (in dark). Cells were then washed and resuspended in HHnoCa to remove extracellular dye and plated in 384-well plates (Falcon, uncoated) at 20,000-30,000 cells/well in a final volume of 25 μL/well.
# FDSS Assay: To each well of the plate, 10 μL test compound, control (MK801) or HHnoCa buffer was added to a final concentration of 10 μM with a final concentration of DMSO of 0.1%. Following 10 minutes pre-incubation in the dark, plates are loaded onto the Hamamatsu FDSS 6000. After collecting baseline fluorescence images, 3 μM glutamate, 3 μM glycine, and 1 mM Ca^2+ in HHnoCa buffer is added to each well, and Ca^2+ is recorded for 3 minutes. Data were processed by computing ratio of fluorescence at the end of data collection to baseline fluorescence to assess degree of Ca^2+ influx inhibition relative to that observed in MK801.
# [1] = inhibition relative to MK801, read-out: NR2A IC50
# Sequence of NR1/NR2A (Q12879 23-1464, other chains not shown): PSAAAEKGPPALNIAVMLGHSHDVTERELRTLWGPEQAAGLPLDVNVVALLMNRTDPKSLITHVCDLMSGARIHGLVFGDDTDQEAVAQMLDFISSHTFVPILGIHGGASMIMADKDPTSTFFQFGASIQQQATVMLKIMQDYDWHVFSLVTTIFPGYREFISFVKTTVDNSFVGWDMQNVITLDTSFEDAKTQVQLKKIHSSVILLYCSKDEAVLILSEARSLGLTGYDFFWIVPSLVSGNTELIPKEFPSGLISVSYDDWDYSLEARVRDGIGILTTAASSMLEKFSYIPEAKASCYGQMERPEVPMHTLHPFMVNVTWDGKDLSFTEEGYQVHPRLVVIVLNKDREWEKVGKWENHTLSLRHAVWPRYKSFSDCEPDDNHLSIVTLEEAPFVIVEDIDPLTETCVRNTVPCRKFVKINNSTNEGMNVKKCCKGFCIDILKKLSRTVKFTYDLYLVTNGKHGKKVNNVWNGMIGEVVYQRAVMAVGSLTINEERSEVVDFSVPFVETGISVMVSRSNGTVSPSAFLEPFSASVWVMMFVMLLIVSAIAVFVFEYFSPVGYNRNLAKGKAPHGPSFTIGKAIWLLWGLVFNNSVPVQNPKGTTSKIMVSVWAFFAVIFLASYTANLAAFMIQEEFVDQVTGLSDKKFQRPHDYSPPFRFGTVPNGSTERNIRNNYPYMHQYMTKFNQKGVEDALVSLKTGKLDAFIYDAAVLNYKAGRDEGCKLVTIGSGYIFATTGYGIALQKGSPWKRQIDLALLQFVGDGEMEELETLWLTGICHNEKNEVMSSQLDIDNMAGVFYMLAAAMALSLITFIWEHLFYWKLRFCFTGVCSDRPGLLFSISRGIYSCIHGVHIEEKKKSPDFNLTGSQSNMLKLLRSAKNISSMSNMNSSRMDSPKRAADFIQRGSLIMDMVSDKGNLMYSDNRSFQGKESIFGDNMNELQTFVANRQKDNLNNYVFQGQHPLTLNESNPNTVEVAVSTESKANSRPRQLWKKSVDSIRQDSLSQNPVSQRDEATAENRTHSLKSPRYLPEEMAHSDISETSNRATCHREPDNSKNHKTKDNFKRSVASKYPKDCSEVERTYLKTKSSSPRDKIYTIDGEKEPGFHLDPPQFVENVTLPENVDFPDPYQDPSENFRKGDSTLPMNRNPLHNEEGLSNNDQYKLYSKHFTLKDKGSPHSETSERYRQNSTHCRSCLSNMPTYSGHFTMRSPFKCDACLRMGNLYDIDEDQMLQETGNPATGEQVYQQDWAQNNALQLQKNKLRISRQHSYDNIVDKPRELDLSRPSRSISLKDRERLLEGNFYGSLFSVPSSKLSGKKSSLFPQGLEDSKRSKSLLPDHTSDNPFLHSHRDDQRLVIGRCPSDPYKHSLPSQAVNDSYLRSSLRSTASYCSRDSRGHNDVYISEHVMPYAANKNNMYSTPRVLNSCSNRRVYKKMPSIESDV
Structure (SMILES),IC50 [1] [µM],IC50 (read-out: Binned Activity) [µM]
"CC(=O)N1CCc2cc(S(=O)(=O)NCc3cnc(C(=O)NCc4cnc(C)s4)cn3)ccc21 [5-(1-acetyl-2,3-dihydro-1H-indole-5-sulfonamidomethyl)-N-[(2-methyl-1,3-thiazol-5-yl)methyl]pyrazine-2-carboxamide]",10,> 10
"CC(=O)N1CCc2cc(S(=O)(=O)NCc3ccc(C(=O)NCc4cnc(C)s4)nc3)ccc21 [5-(1-acetyl-2,3-dihydro-1H-indole-5-sulfonamidomethyl)-N-[(2-methyl-1,3-thiazol-5-yl)methyl]pyridine-2-carboxamide]",10,> 10
"Cc1ncc(CNC(=O)c2cnc(CNS(=O)(=O)c3cc4ccccc4s3)cn2)s1 [5-(1-benzothiophene-2-sulfonamidomethyl)-N-[(2-methyl-1,3-thiazol-5-yl)methyl]pyrazine-2-carboxamide]",10,> 10
"Cc1ncc(CNC(=O)c2ccc(CNS(=O)(=O)c3cc4ccccc4s3)cn2)s1 [5-(1-benzothiophene-2-sulfonamidomethyl)-N-[(2-methyl-1,3-thiazol-5-yl)methyl]pyridine-2-carboxamide]",10,> 10
"Cc1ncc(CNC(=O)c2ccc(CNS(=O)(=O)c3csc4ccccc34)cn2)s1 [5-(1-benzothiophene-3-sulfonamidomethyl)-N-[(2-methyl-1,3-thiazol-5-yl)methyl]pyridine-2-carboxamide]",10,> 10
"Cc1ncc(CNC(=O)c2ccc(CNS(=O)(=O)c3cccc4nsnc34)cn2)s1 [5-(2,1,3-benzothiadiazole-4-sulfonamidomethyl)-N-[(2-methyl-1,3-thiazol-5-yl)methyl]pyridine-2-carboxamide]",10,> 10
"Cc1ncc(CNC(=O)c2cnc(CNS(=O)(=O)c3ccc(Cl)nc3Cl)cn2)s1 [5-(2,6-dichloropyridine-3-sulfonamidomethyl)-N-[(2-methyl-1,3-thiazol-5-yl)methyl]pyrazine-2-carboxamide]",10,> 10
"Cc1ncc(CNC(=O)c2ccc(CNS(=O)(=O)c3ccc(Cl)nc3Cl)cn2)s1 [5-(2,6-dichloropyridine-3-sulfonamidomethyl)-N-[(2-methyl-1,3-thiazol-5-yl)methyl]pyridine-2-carboxamide]",10,> 10
"Cc1ncc(CNC(=O)c2cnc(CNS(=O)(=O)c3ccccc3F)c(C)n2)s1 [5-(2-fluorobenzenesulfon-amidomethyl)-6-methyl-N-[(2-methyl-1,3-thiazol-5-yl)methyl]pyrazine-2-carboxamide]",10,> 10
"Cc1ncc(CNC(=O)c2cnc(CNS(=O)(=O)c3ccccc3F)cn2)s1 [5-(2-fluorobenzenesulfon-amidomethyl)-N-[(2-methyl-1,3-thiazol-5-yl)methyl]pyrazine-2-carboxamide]",10,> 10
"Cc1ncc(CNC(=O)c2ccc(CNS(=O)(=O)c3ccccc3F)cn2)s1 [5-(2-fluorobenzenesulfon-amidomethyl)-N-[(2-methyl-1,3-thiazol-5-yl)methyl]pyridine-2-carboxamide]",10,> 10
"Cc1ncc(CNC(=O)c2cnc(CNS(=O)(=O)c3ccc(Cl)c(Cl)c3)c(C)n2)s1 [5-(3,4-dichlorobenzenesulfon-amidomethyl)-6-methyl-N-[(2-methyl-1,3-thiazol-5-yl)methyl]pyrazine-2-carboxamide]",,0.1 to 1
"Cc1ncc(CNC(=O)c2cnc(CNS(=O)(=O)c3ccc(Cl)c(Cl)c3)cn2)s1 [5-(3,4-dichlorobenzenesulfon-amidomethyl)-N-[(2-methyl-1,3-thiazol-5-yl)methyl]pyrazine-2-carboxamide]",10,> 10
"Cc1ncc(CNC(=O)c2ccc(CNS(=O)(=O)c3ccc(Cl)c(Cl)c3)cn2)s1 [5-(3,4-dichlorobenzenesulfon-amidomethyl)-N-[(2-methyl-1,3-thiazol-5-yl)methyl]pyridine-2-carboxamide]",,1 to 10
"Cc1ncc(CNC(=O)c2cnc(CNS(=O)(=O)c3ccc(F)c(F)c3)cn2)s1 [5-(3,4-difluorobenzenesulfon-amidomethyl)-N-[(2-methyl-1,3-thiazol-5-yl)methyl]pyrazine-2-carboxamide]",,0.1 to 1
"Cc1ncc(CNC(=O)c2ccc(CNS(=O)(=O)c3ccc(F)c(F)c3)cn2)s1 [5-(3,4-difluorobenzenesulfon-amidomethyl)-N-[(2-methyl-1,3-thiazol-5-yl)methyl]pyridine-2-carboxamide]",,0.1 to 1
"Cc1ncc(CNC(=O)c2cnc(CNS(=O)(=O)c3cc(Cl)cc(Cl)c3)c(C)n2)s1 [5-(3,5-dichlorobenzenesulfon-amidomethyl)-6-methyl-N-[(2-methyl-1,3-thiazol-5-yl)methyl]pyrazine-2-carboxamide]",10,> 10
"Cc1ncc(CNC(=O)c2cnc(CNS(=O)(=O)c3cc(Cl)cc(Cl)c3)cn2)s1 [5-(3,5-dichlorobenzenesulfon-amidomethyl)-N-[(2-methyl-1,3-thiazol-5-yl)methyl]pyrazine-2-carboxamide]",10,> 10
"Cc1ncc(CNC(=O)c2ccc(CNS(=O)(=O)c3cc(Cl)cc(Cl)c3)cn2)s1 [5-(3,5-dichlorobenzenesulfon-amidomethyl)-N-[(2-methyl-1,3-thiazol-5-yl)methyl]pyridine-2-carboxamide]",10,> 10
"Cc1ncc(CNC(=O)c2cnc(CNS(=O)(=O)c3cc(F)cc(F)c3)c(C)n2)s1 [5-(3,5-difluorobenzenesulfon-amidomethyl)-6-methyl-N-[(2-methyl-1,3-thiazol-5-yl)methyl]pyrazine-2-carboxamide]",,0.1 to 1
"Cc1ncc(CNC(=O)c2cnc(CNS(=O)(=O)c3cc(F)cc(F)c3)cn2)s1 [5-(3,5-difluorobenzenesulfon-amidomethyl)-N-[(2-methyl-1,3-thiazol-5-yl)methyl]pyrazine-2-carboxamide]",10,> 10
"Cc1ncc(CNC(=O)c2ccc(CNS(=O)(=O)c3cc(F)cc(F)c3)cn2)s1 [5-(3,5-difluorobenzenesulfon-amidomethyl)-N-[(2-methyl-1,3-thiazol-5-yl)methyl]pyridine-2-carboxamide]",10,> 10
"CCc1nc(C(=O)NCc2cnc(C)s2)cnc1CNS(=O)(=O)c1ccc(F)c(Cl)c1 [5-(3-chloro-4-fluorobenzenesulfon-amidomethyl)-6-ethyl-N-[(2-methyl-1,3-thiazol-5-yl)methyl]pyrazine-2-carboxamide]",,< 0.1
"Cc1ncc(CNC(=O)c2cnc(CNS(=O)(=O)c3ccc(F)c(Cl)c3)c(C)n2)s1 [5-(3-chloro-4-fluorobenzenesulfon-amidomethyl)-6-methyl-N-[(2-methyl-1,3-thiazol-5-yl)methyl]pyrazine-2-carboxamide]",,< 0.1
"O=C(NC1CCS(=O)(=O)C1)c1cnc(CNS(=O)(=O)c2ccc(F)c(Cl)c2)cn1 (stereo not drawn) [5-(3-chloro-4-fluorobenzenesulfon-amidomethyl)-N-(1,1-dioxo-1λ^6-thiolan-3-yl)pyrazine-2-carboxamide]",10,> 10
"O=C(NC1CCS(=O)(=O)C1)c1ccc(CNS(=O)(=O)c2ccc(F)c(Cl)c2)cn1 (stereo not drawn) [5-(3-chloro-4-fluorobenzenesulfon-amidomethyl)-N-(1,1-dioxo-1λ^6-thiolan-3-yl)pyridine-2-carboxamide]",10,> 10
